{
  "source": "patent US20030190368A1",
  "about": "“METHODS OF DIAGNOSIS AND TRIAGE USING CELL ACTIVATION MEASURES” (priority 1998, published 2003)",
  "key": {"[1]": {"test_system": "human neutrophils", "test": "Neutrophil response to fluid shear-stress in vitro", "format": "cell-based", "description": "In these experiments the shear-stress was kept sufficiently low (˜1 dyn/cm2) to avoid significant viscoelastic cell deformation. Fresh leukocytes from pin-pricked blood of healthy volunteers were collected in Vacutainer tubes (sodium heparin pre-treated, Becton Dickinson, Franklin Lakes, N.J.). The red blood cells were allowed to sediment at room temperature for about 30 minutes. The supernatant mixture of 1 part platelets and leukocytes was resuspended in 20 parts Plasma Lyte (Baxter Healthcare Corp., Deerfield, Ill.). Neutrophils, monocytes and lymphocytes were identified by their morphology (125× magnification). All experiments were performed within four hours following blood collection.\n100 μl of the cell preparation was deposited into a small chamber with a transparent bottom on an inverted microscope (Leitz Diavert, Germany) with a 50× objective. […]\nFilmed neutrophils presented various responses to shear-stress. In order to quantify the results neutrophil response was divided into three categories: […]"}, "[2]": {"test_system": "rats subjected to SAO shock", "test": "Splanchnic arterial occlusion (SAO) shock with Futhan pretreatment", "format": "in vivo, rat", "source_text": "Rats randomly selected were weighed and anesthetized, and arterial and venous catheters were inserted which were used for blood pressure measurements and anesthesia, respectively. […] At the termination of the experiments arterial blood was drawn for determination of plasma peroxide concentration using a peroxide electrode measurement technique.\nMale Wistar rats (250-320 g) were randomly divided into SAO shock (n=7) and SAO shock sham groups (n=6). Animals were cannulated via the femoral arteries and vein under general anesthesia using pentobarbital (50 mg/kg i.m.). No heparin was injected other than that needed to ensure open catheter lines (10U/ml Plasma-Lyte). One femoral artery was connected up to monitor continuous mean arterial pressure (MAP), while the other was used for the collection of blood samples. […] MAP and heart rate were recorded."}, "[3]": {"test_system": "rats", "test": "Bolus injection of pancreatic homogenate (mock SAO shock)", "format": "in vivo", "description": "A bolus injection of incubated pancreatic homogenate was tested for its ability to lead to circulatory shock in the rat. The ability of Futhan pretreatment to mitigate shock induced in this manner was also tested. A mock SAO shock protocol was repeated as previously described, with either 60 min Futhan or saline pretreatment and a 2 ml bolus injection of either pancreatic homogenate or low-molecular weight pancreatic homogenate injected in lieu of arterial clamping.\nThe SAO shock experiments were repeated with the bolus injection of pancreatic homogenate in an effort to simulate the “unclamping” of the arteries and liberation of pancreatic components into the circulation instead of the actual ischemia/reperfusion of the splanchnic region. The low-molecular weight (2 ml) as well whole homogenate (2 ml) were tested for their ability to induce hypotension and cause circulatory shock. The ability of Futhan to counter the effects of the injection of pancreatic homogenate was also tested as in the SAO shock protocol. At the termination of these experiments arterial blood was drawn for the determination of plasma peroxide concentration using the peroxide electrode measurement technique."}, "[4]": {"test": "pH and solubility of Futhan", "format": "physicochemical", "description": "The reasons for the ineffectiveness of Futhan in ameliorating SAO shock in initial experiments appeared to be due to the pH of Futhan in solution, which is approximately 3.5 at the concentration of I mg/ml in 5% glucose-deionized (DI) water as per the manufacturer's instructions. Under the established protocol, approximately 2 ml of this solution were injected at the rate of 0.05 ml every 5 minutes into an approximate rat blood volume of 20 ml. In sham-shocked animals (not reported here) the buffering capacity of blood is able to absorb any perturbations in pH. In shocked animals, however, the pH buffering capacity, especially of the pancreas and small intestine, is severely compromised. Thus, the injection of Futhan would contribute to irreversible acidosis. […] Although the animals recovered from these transient depressions of MAP, Futhan injected animals typically expressed a lower MAP than the saline-injected group. This difference was not significant."}, "[5]": {"test_system": "neutrophils", "settings": "cited from earlier work"}},
  "note": "Entries after “also recorded” stand apart in the source; their conditions may differ.",
  "data": [
    {"smiles": "CS(=O)(=O)O.CS(=O)(=O)O.N=C(N)Nc1ccc(C(=O)Oc2ccc3cc(C(=N)N)ccc3c2)cc1", "note": "[Futhan, 6-amidino-2-naphthyl p-guanidinobenzoate dimethanesulfonate]", "values": [
      {"measurement": "effect of Futhan on neutrophil activation in shear-stress test", "setting": "[1]; 10 μl Futhan 0.05 and 0.13 mg/ml in 5% glucose + 10 μl pig pancreatic homogenate + 80 μl cells", "value": "slightly pro-inflammatory effect"},
      {"measurement": "complete response to shear stress of Futhan-treated neutrophils", "setting": "[1]; Futhan 0.05 and 0.13 mg/ml + pig pancreatic homogenate", "value": "no Futhan-treated neutrophil exhibited a complete response"},
      {"measurement": "MAP and survival time, small bolus regimen", "setting": "[2]; 0.05 ml bolus every 5 minutes, 1, 3.3, 10, 20 mg Futhan/kg body wt, pretreatment 30 or 60 min", "value": "uniformly unable to restore MAP or increase survival times"},
      {"measurement": "blood pressure effect of Futhan injection", "setting": "[2]; 0.05 ml doses", "value": "transient hypotension"},
      {"measurement": "mean arterial pressure after removal of arterial clamps", "setting": "[2]; Futhan 3.3 mg/kg body wt/hour i.v. infusion pump, 60 min pretreatment, vs saline", "value": "significant reduction in the fall of blood pressure"},
      {"measurement": "survival / mortality after SAO shock", "setting": "[2]; Futhan 3.3 mg/kg body wt/hour infusion, 60 min pretreatment, vs saline controls, dimethanesulfonate", "value": "significant increase in survival; also recorded: prevented mortality"},
      {"measurement": "circulating plasma peroxide after SAO shock", "setting": "[2]; Futhan 3.3 mg/kg body wt/hour infusion, vs control animals", "value": "significantly lower levels of circulating peroxide production"},
      {"measurement": "plasma peroxide formation after SAO shock, small bolus regimen", "setting": "[2]; initial experiments, bolus injections", "value": "ineffective"},
      {"measurement": "mortality after pancreatic homogenate injection in Futhan-pretreated rats", "setting": "[3]; 60 minute post-injection observation period, Futhan 3.3 mg/kg body wt/hr", "value": "None of the Futhan-treated group died"},
      {"measurement": "MAP after pancreatic homogenate injection in Futhan-pretreated rats", "setting": "[3]; Futhan 3.3 mg/kg body wt/hr", "value": "MAP returned to nearly initial values"},
      {"measurement": "blood pressure effect of Futhan infusion pretreatment", "setting": "[3]; infusion pump 3.3 mg/kg body wt/hr", "value": "depression of MAP"},
      {"measurement": "pH of Futhan in solution", "setting": "[4]; I mg/ml in 5% glucose-deionized (DI) water", "value": "approximately 3.5"},
      {"measurement": "solubility", "setting": "[4]; alcohol, rat serum, DMSO, balanced Tris (Trizma) buffer at physiologic pH", "value": "insoluble"},
      {"measurement": "free radical scavenging", "setting": "[5]", "value": "does not possess any free radical scavenging effects"},
      {"measurement": "zymosan-induced chemiluminescence activation by neutrophils", "setting": "[5]; in vitro", "value": "inhibited zymosan-induced chemiluminescence activation by neutrophils"}
    ]}
  ]
}
